{"source": "patent US9399904B2", "about": "“Oil recovery system and method” (SHELL OIL COMPANY, priority 2013, dated 2016)", "test": "Oil recovery from oil saturated formation core by brine displacement followed by DMS displacement", "conditions": "after waterflooding with brine", "description": "Incremental recovery of oil from a formation core using an oil recovery formulation consisting of dimethyl sulfide following oil recovery from the core by water-flooding was measured to evaluate the effectiveness of DMS as a tertiary oil recovery agent.\nTwo 5.02 cm long Berea sandstone cores with a core diameter of 3.78 cm and a permeability between 925 and 1325 mD were saturated with a brine having a composition as set forth in Table 7.\nAfter saturation of the cores with brine, the brine was displaced by a Middle Eastern Asphaltic crude oil having the characteristics as set forth above in Table 3 to saturate the cores with oil.\nOil was recovered from each oil saturated core by the addition of brine to the core under pressure and by subsequent addition of DMS to the core under pressure. Each core was treated as follows to determine the amount of oil recovered from the core by addition of brine followed by addition of DMS. Oil was initially displaced from the core by addition of brine to the core under pressure. A confining pressure of 1 MPa was applied to the core during addition of the brine, and the flow rate of brine to the core was set at 0.05 ml/min. The core was maintained at a temperature of 50° C. during displacement of oil from the core with brine. […]"}
{"molecule": "CSC", "note": "[Dimethyl Sulfide, dimethyl sulfide]", "values": [{"measurement": "oil recovered, of the oil remaining in the core after the waterflood", "result": "approximately 60%"}]}
